For three compounds, ED50 results are on record in patent publication US7232812B2, “Substituted azetidine compounds, their preparation and use as medicaments” (Laboratorios de Dr. Esteve S.A., priority 2004, dated 2007).

Common to all, as to assay type: in vivo
Experiment [1] concerns rats. The experiment is described as follows: Analgesia test in rats (carrageenan, thermal stimulus). To be noted: Rattus norvegicus, oral route, 2 hours after administration, read-out: ED50 analgesic activity. The method, then:
III: Analgesia Test in Rats
The inventive compounds are tested for analgesic activity as described above is carried out as described in the publication of K. Hargreaves et al., Pain, 32, 77–88, (1988). The respective part of the description is hereby incorporated by reference and forms part of the disclosure.
The rats are transferred to the experimentation laboratory, where they remain in groups of 5, in makrolon cages with a barred floor to avoid coprophagy. At the beginning of the experiment, water and food were removed, and animals were adequately weighed and marked.
Each rat receives via subplantar injection 0.1 ml of sterile saline solution into the left hind paw, followed by 0.1 ml of a 2% (weight/volume) carrageenan suspension in sterile saline solution into the right hind paw.
Two hours after the subplantar injections of carrageenan and vehicle, each rat receives by oral route the compounds to be tested, suspended in 5% (weight/volume) gum arabic, administered at 10 ml per kg of body weight.
Two hours after the administration of the compounds to be tested, the values for analgesic activity are determined. To this purpose, the rats are transferred to the methacrylate chambers of an analgesimeter provided with a glass floor. […]

For experiment [2], the system named is rats. The experiment is described as follows: Test for activity against edema in rats (carrageenin paw). To be noted: Rattus norvegicus, oral route. On the procedure: IV. Test for Activity Against Edema in Rats
The test for activity against edema is carried out as described in the publication of Winter et al., Proc. Soc. Exp. Biol. Med. 111, 544–547, (1962). The respective part of the description is hereby incorporated by reference and forms part of the present disclosure.
At the beginning of each experimental session the rats are deprived of food, and kept in cages within groups of 5 animals, the cages being fitted with a grating on the floor to prevent coprophagy. After a period of 24 hours without food, the animals are marked in a suitable way, weighed and hydrated via oral administration of 30 ml/kg body weight of tap water. Half an hour after the hydratisation, the compounds to be tested are administered via oral route, in an amount of 10 ml/kg body weight as a suspension in gum arabic at 5% (weigh/volume). One hour after administration of the compounds the animals receive 0.1 ml of the inflammation causing agent (carrageenin 1% weight/volume, in sterile solution), injected via subplantar route into the right hind paw of the rats. Immediately after the carrageenin injection the volume of the injected paw is determined using a plethysmometer. The readings are expressed in ml. Readings of the volume of the paw are taken every hour after administration of the carrageenin for 7 hours.
For orientation: The carrageenan paw model is a standard test of acute inflammation.

In experiment [3] the test system is PGE2 production. The experiment is described as follows: PGE2 production in rat gastric mucosa. To be noted: rats, oral route, read-out: PGE2 gastric mucose ED50. On the procedure: (§1) VI: PGE2 Production in Rat Inflammatory Exudate and Gastric Mucosa
(§2) The PGE2 production in rat inflammatory exudate and gastric mucosa is carried out as described in the publication of O Tofanetti et al., “Effect of nimesulide on cyclo-oxygenase activity in rat gastric mucosa and inflammatory exudate”, Med Sci Res 17, 745–746 (1989). The respective part of the description is hereby incorporated by reference and forms part of the present disclosure.
(§3) For this text 6 male wistar rats (Interfauna-St Feliú de Codines, Barcelona) of approximately 200 g (each approximately 6 weeks of age) are used. The compounds to be tested are administered via oral route in gum Arabic at 5% (weight/volume) at a rate of 10 ml/kg.
(§4) One hour after administration of the compounds and under halothane anaesthesia, each rat is implanted subcutaneously in the interescapular area a 40×15×5 mm polyester sponge, soaked in a 0.5% suspension of carrageenan. […]
(§5) The rats's stomachs are removed and the gastric mucosa is detached from the underlying layers and by means of a 10 mm diameter die, mucosa samples from an area between the gastric corpus and pyloric antrum are taken. […] PGE2 concentrations from the inflammatory exudates and the gastric mucosa are determined by means of immunoassay reagents of Cayman Chemical kit, Ann Arbor, Mich., U.S.A. (Catalogue number: 514010) according to the manufacturer's instructions.

Experiment [4] deals with PGE2 production. The experiment is described as follows: PGE2 production in rat inflammatory exudate. The following applies: rats, oral route, carrageenan sponge exudate, read-out: PGE2 Inflam. exudade ED50. The method, then:
as §1, §2, §3, §4, §5

Structures are written as SMILES.

As to `CC1(O)CN(C(=O)c2cc(C(C)(C)C)c(O)c(C(C)(C)C)c2)C1` [Example 3, (3,5-di-tert-butyl-4-hydroxy-phenyl)-(3-hydroxy-3-methyl-azetidin-1-yl)-methanone], the ED50 turned out to be 0.14 mg/kg in the experiment with rats [1], 58 mg/kg in the experiment with rats [2], 7.3 mg/kg in the experiment with PGE2 production [3] and 0.5 mg/kg in the experiment on PGE2 production [4].
For `CC(C)(C)c1cc(C(=O)N2CC(O)C2)cc(C(C)(C)C)c1O` [Example 1, (3,5-di-tert-butyl-4-hydroxy-phenyl)-(3-hydroxy-azetidin-1-yl)-methanone], in that order: 0.4 mg/kg, 3 mg/kg, 0.16 mg/kg and 0.28 mg/kg.
Regarding `CC(C)(C)c1cc(CN2CC(O)C2)cc(C(C)(C)C)c1O` [Example 17, 1-(3,5-di-tert-butyl-4-hydroxy-benzyl)-azetidin-3-ol], the 50% effect level in the experiment with rats [2] (ED50) was put at a dose of 62 mg/kg.

What is called ED50 is the dose at which the effect has come halfway, by size or by number of responders.
